In brackets after ≈: the same amount, converted by molar mass.
Tests used:
Pseudomonas aeruginosa [1] = test: Antimicrobial activity against Pseudomonas aeruginosa PA3919 with (delta(mexAB-OprM)delta(mexXY)delta(MexZ) phenotype after 16 to 20 hrs by 2-fold microbroth dilution method; assay type: functional
[2] = molecular target: T1, UDP-3-O-acyl-N-acetylglucosamine deacetylase (Pseudomonas aeruginosa (strain ATCC 15692 / PAO1 / 1C / PRS 101 / LMG12228), UniProt P47205); test: Inhibition of Pseudomonas aeruginosa LpxC expressed in Escherichia coli using UDP-3-O-N-acetylglucosamine substrate measured after 30 mins by mass spectrometry
T1 sequence (P47205 whole entry): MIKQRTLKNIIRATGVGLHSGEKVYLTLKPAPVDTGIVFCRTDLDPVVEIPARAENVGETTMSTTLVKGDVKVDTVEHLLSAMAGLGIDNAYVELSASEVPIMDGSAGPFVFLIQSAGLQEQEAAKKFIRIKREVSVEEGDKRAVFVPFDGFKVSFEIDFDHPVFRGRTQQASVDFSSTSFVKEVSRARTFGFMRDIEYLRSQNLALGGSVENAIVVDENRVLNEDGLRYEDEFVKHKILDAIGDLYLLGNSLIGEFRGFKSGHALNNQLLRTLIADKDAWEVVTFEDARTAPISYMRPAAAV

Pseudomonas aeruginosa [3] = test: Antimicrobial activity against wild type Pseudomonas aeruginosa PA01 after 16 to 20 hrs by 2-fold microbroth dilution method; assay type: functional
Acinetobacter sp. = test: Antimicrobial activity against Acinetobacter sp. after 16 to 20 hrs by 2-fold microbroth dilution method; assay type: functional
Escherichia coli = test: microbe, parasite or virus in culture
Description: Antimicrobial activity against Escherichia coli after 16 to 20 hrs by 2-fold microbroth dilution method

Klebsiella aerogenes = test: microbe, parasite or virus in culture
Description: Antimicrobial activity against Enterobacter aerogenes after 16 to 20 hrs by 2-fold microbroth dilution method

Pseudomonas aeruginosa [4] = test: microbe, parasite or virus in culture
Description: Antimicrobial activity against Pseudomonas aeruginosa after 16 to 20 hrs by 2-fold microbroth dilution method

Klebsiella pneumoniae = test: microbe, parasite or virus in culture
Description: Antimicrobial activity against Klebsiella pneumoniae after 16 to 20 hrs by 2-fold microbroth dilution method

Citrobacter freundii = test: microbe, parasite or virus in culture
Description: Antimicrobial activity against Citrobacter freundii after 16 to 20 hrs by 2-fold microbroth dilution method

SMILES	MIC (Pseudomonas aeruginosa [1])	IC50 [2]	MIC (Pseudomonas aeruginosa [3])	MIC90 (Acinetobacter sp.)	MIC90 (Escherichia coli)	MIC90 (Klebsiella aerogenes)	MIC90 (Pseudomonas aeruginosa [4])	MIC90 (Klebsiella pneumoniae)	MIC90 (Citrobacter freundii)
COc1ncc(-c2ccc(-c3ccn(CC[C@](C)(C(=O)NO)S(C)(=O)=O)c(=O)c3)cc2)cn1	0.03 µg/mL (≈ 0.0635 µM)	2 nM	0.5 µg/mL (≈ 1.06 µM)						
Cc1c(-c2ccccc2)ccn(CC[C@](C)(C(=O)NO)S(C)(=O)=O)c1=O	0.015 µg/mL (≈ 0.0396 µM)	6.7 nM	0.5 µg/mL (≈ 1.32 µM)						
Cc1cn(CC[C@](C)(C(=O)NO)S(C)(=O)=O)c(=O)cc1-c1ccccc1	0.125 µg/mL (≈ 0.33 µM)	30 nM	8 µg/mL (≈ 21.1 µM)						
Cc1cc(-c2ccccc2)cc(=O)n1CC[C@](C)(C(=O)NO)S(C)(=O)=O	0.125 µg/mL (≈ 0.33 µM)	22 nM	4 µg/mL (≈ 10.6 µM)						
C[C@@](CCn1ccc(-c2ccccc2)c(F)c1=O)(C(=O)NO)S(C)(=O)=O	0.015 µg/mL (≈ 0.0392 µM)	4.9 nM	1 µg/mL (≈ 2.61 µM)						
C[C@@](CCn1cc(F)c(-c2ccccc2)cc1=O)(C(=O)NO)S(C)(=O)=O	0.015 µg/mL (≈ 0.0392 µM)	2.3 nM	0.5 µg/mL (≈ 1.31 µM)	32 µg/mL (≈ 83.7 µM)	4 µg/mL (≈ 10.5 µM)	8 µg/mL (≈ 20.9 µM)	4 µg/mL (≈ 10.5 µM)	8 µg/mL (≈ 20.9 µM)	8 µg/mL (≈ 20.9 µM)
C[C@@](CCn1ccc(-c2ccccc2)nc1=O)(C(=O)NO)S(C)(=O)=O	0.5 µg/mL (≈ 1.37 µM)	57 nM	16 µg/mL (≈ 43.8 µM)						
C[C@@](CCn1cnc(-c2ccccc2)cc1=O)(C(=O)NO)S(C)(=O)=O	0.03 µg/mL (≈ 0.0821 µM)	8.5 nM	1 µg/mL (≈ 2.74 µM)	64 µg/mL (≈ 175 µM)	8 µg/mL (≈ 21.9 µM)	16 µg/mL (≈ 43.8 µM)	4 µg/mL (≈ 10.9 µM)	16 µg/mL (≈ 43.8 µM)	16 µg/mL (≈ 43.8 µM)
C[C@@](CCn1ncc(-c2ccccc2)cc1=O)(C(=O)NO)S(C)(=O)=O	1 µg/mL (≈ 2.74 µM)	> 72 nM	32 µg/mL (≈ 87.6 µM)						
C[C@@](CCn1ccc(-c2ccccn2)cc1=O)(C(=O)NO)S(C)(=O)=O	0.25 µg/mL (≈ 0.684 µM)	60 nM	4 µg/mL (≈ 10.9 µM)						
C[C@@](CCn1ccc(-c2cccnc2)cc1=O)(C(=O)NO)S(C)(=O)=O	2 µg/mL (≈ 5.47 µM)	> 100 nM	> 64 µg/mL						
C[C@@](CCn1ccc(-c2ccncc2)cc1=O)(C(=O)NO)S(C)(=O)=O	0.5 µg/mL (≈ 1.37 µM)	39 nM	32 µg/mL (≈ 87.6 µM)						
COc1ccc(-c2ccn(CC[C@](C)(C(=O)NO)S(C)(=O)=O)c(=O)c2)cn1	0.06 µg/mL (≈ 0.152 µM)	6.4 nM	2 µg/mL (≈ 5.06 µM)	> 64 µg/mL	8 µg/mL (≈ 20.2 µM)	32 µg/mL (≈ 80.9 µM)	16 µg/mL (≈ 40.5 µM)	32 µg/mL (≈ 80.9 µM)	16 µg/mL (≈ 40.5 µM)
Cc1ccn(CC[C@](C)(C(=O)NO)S(C)(=O)=O)c(=O)c1	8 µg/mL (≈ 26.5 µM)	> 100 nM	64 µg/mL (≈ 212 µM)						
CC(C)(C)c1ccn(CC[C@](C)(C(=O)NO)S(C)(=O)=O)c(=O)c1	0.25 µg/mL (≈ 0.726 µM)	69 nM	8 µg/mL (≈ 23.2 µM)						
C[C@@](CCn1ccc(C2=CCCCC2)cc1=O)(C(=O)NO)S(C)(=O)=O	0.03 µg/mL (≈ 0.0814 µM)	4.1 nM	0.5 µg/mL (≈ 1.36 µM)						
C[C@@](CCn1ccc(/C=C/c2ccccc2)cc1=O)(C(=O)NO)S(C)(=O)=O	0.03 µg/mL (≈ 0.0768 µM)	3.2 nM	0.5 µg/mL (≈ 1.28 µM)						
C[C@@](CCn1ccc(CCc2ccccc2)cc1=O)(C(=O)NO)S(C)(=O)=O	0.03 µg/mL (≈ 0.0764 µM)	6 nM	2 µg/mL (≈ 5.1 µM)						
C[C@@](CCn1ccc(-c2ccccc2F)cc1=O)(C(=O)NO)S(C)(=O)=O	0.015 µg/mL (≈ 0.0392 µM)	2.2 nM	0.25 µg/mL (≈ 0.654 µM)						
C[C@@](CCn1ccc(-c2cccc(F)c2)cc1=O)(C(=O)NO)S(C)(=O)=O	0.015 µg/mL (≈ 0.0392 µM)	3 nM	0.5 µg/mL (≈ 1.31 µM)						
C[C@@](CCn1ccc(-c2ccc(F)cc2)cc1=O)(C(=O)NO)S(C)(=O)=O	0.008 µg/mL (≈ 0.0209 µM)	2.9 nM	0.25 µg/mL (≈ 0.654 µM)						
C[C@@](CCn1ccc(-c2c(F)cccc2F)cc1=O)(C(=O)NO)S(C)(=O)=O	0.03 µg/mL (≈ 0.0749 µM)	4.8 nM	0.5 µg/mL (≈ 1.25 µM)						

SMILES	MIC (Pseudomonas aeruginosa [1])	IC50 [2]	MIC (Pseudomonas aeruginosa [3])	MIC90 (Acinetobacter sp.)	MIC90 (Escherichia coli)	MIC90 (Klebsiella aerogenes)	MIC90 (Pseudomonas aeruginosa [4])	MIC90 (Klebsiella pneumoniae)	MIC90 (Citrobacter freundii)
C[C@@](CCn1ccc(-c2cc(F)cc(F)c2)cc1=O)(C(=O)NO)S(C)(=O)=O	0.03 µg/mL (≈ 0.0749 µM)	3.9 nM	1 µg/mL (≈ 2.5 µM)						
C[C@@](CCn1ccc(-c2cc(F)ccc2F)cc1=O)(C(=O)NO)S(C)(=O)=O	0.03 µg/mL (≈ 0.0749 µM)	4.4 nM	1 µg/mL (≈ 2.5 µM)						
Cc1cccc(C)c1-c1ccn(CC[C@](C)(C(=O)NO)S(C)(=O)=O)c(=O)c1	2 µg/mL (≈ 5.1 µM)	> 87 nM	64 µg/mL (≈ 163 µM)						
Cc1cc(C)cc(-c2ccn(CC[C@](C)(C(=O)NO)S(C)(=O)=O)c(=O)c2)c1	0.125 µg/mL (≈ 0.318 µM)	5.3 nM	2 µg/mL (≈ 5.1 µM)						
COc1ccccc1-c1ccn(CC[C@](C)(C(=O)NO)S(C)(=O)=O)c(=O)c1	0.125 µg/mL (≈ 0.317 µM)	12 nM	4 µg/mL (≈ 10.1 µM)						
COc1cccc(-c2ccn(CC[C@](C)(C(=O)NO)S(C)(=O)=O)c(=O)c2)c1	0.03 µg/mL (≈ 0.0761 µM)	3.7 nM	1 µg/mL (≈ 2.54 µM)						
COc1ccc(-c2ccn(CC[C@](C)(C(=O)NO)S(C)(=O)=O)c(=O)c2)cc1	0.008 µg/mL (≈ 0.0203 µM)		0.125 µg/mL (≈ 0.317 µM)						
COc1cccc(-c2ccn(CC[C@](C)(C(=O)NO)S(C)(=O)=O)c(=O)c2)c1F	0.015 µg/mL (≈ 0.0364 µM)	1.8 nM	0.5 µg/mL (≈ 1.21 µM)						
COc1ccc(-c2ccn(CC[C@](C)(C(=O)NO)S(C)(=O)=O)c(=O)c2)cc1F	0.03 µg/mL (≈ 0.0727 µM)	2 nM	0.5 µg/mL (≈ 1.21 µM)						
C[C@@](CCn1ccc(-c2ccc(-c3ccccn3)cc2)cc1=O)(C(=O)NO)S(C)(=O)=O	0.015 µg/mL (≈ 0.034 µM)	1.3 nM	0.5 µg/mL (≈ 1.13 µM)						
C[C@@](CCn1ccc(-c2ccc(-c3ccncc3)cc2)cc1=O)(C(=O)NO)S(C)(=O)=O	0.03 µg/mL (≈ 0.0679 µM)	1.2 nM	0.5 µg/mL (≈ 1.13 µM)						
COc1cnc(-c2ccc(-c3ccn(CC[C@](C)(C(=O)NO)S(C)(=O)=O)c(=O)c3)cc2)nc1	0.03 µg/mL (≈ 0.0635 µM)	1.2 nM	0.25 µg/mL (≈ 0.529 µM)						
C[C@@](CCn1ccc(-c2ccc(-c3nccs3)cc2)cc1=O)(C(=O)NO)S(C)(=O)=O	0.015 µg/mL (≈ 0.0335 µM)	1.1 nM	0.25 µg/mL (≈ 0.559 µM)						
C[C@@](CCn1ccc(-c2ccc(-c3ccon3)cc2)cc1=O)(C(=O)NO)S(C)(=O)=O	0.015 µg/mL (≈ 0.0348 µM)	1.1 nM	0.25 µg/mL (≈ 0.579 µM)						
CC(CCc1ccc(-c2ccccc2)cn1)(C(=O)NO)S(C)(=O)=O (racemic)	0.125 µg/mL (≈ 0.359 µM)	13 nM	4 µg/mL (≈ 11.5 µM)						
CC(CCc1ccc(-c2ccccc2)nc1)(C(=O)NO)S(C)(=O)=O (racemic)	0.25 µg/mL (≈ 0.718 µM)	49 nM	8 µg/mL (≈ 23 µM)						
CC(CCc1ncc(-c2ccccc2)cn1)(C(=O)NO)S(C)(=O)=O (racemic)	4 µg/mL (≈ 11.4 µM)	> 100 nM	> 64 µg/mL						
CC(CCc1ccc(-c2ccccc2)nc1O)(C(=O)NO)S(C)(=O)=O (racemic)	1 µg/mL (≈ 2.74 µM)	53 nM	32 µg/mL (≈ 87.8 µM)						
CC(CCn1ccc(C2CCCCC2)cc1=O)(C(=O)NO)S(C)(=O)=O (racemic)	0.06 µg/mL (≈ 0.162 µM)	11 nM	2 µg/mL (≈ 5.4 µM)						
C[C@H]1[C@H](NC(=O)/C(=N\OC(C)(C)C(=O)O)c2csc(N)n2)C(=O)N1S(=O)(=O)O [AZTREONAM]				32 µg/mL (≈ 73.5 µM)	> 64 µg/mL	32 µg/mL (≈ 73.5 µM)	64 µg/mL (≈ 147 µM)	> 64 µg/mL	> 64 µg/mL
O=C(O)c1cn(C2CC2)c2cc(N3CCNCC3)c(F)cc2c1=O [CIPROFLOXACIN]				64 µg/mL (≈ 193 µM)	> 64 µg/mL	1 µg/mL (≈ 3.02 µM)	64 µg/mL (≈ 193 µM)	64 µg/mL (≈ 193 µM)	32 µg/mL (≈ 96.6 µM)

Source: ChEMBL document CHEMBL2021790, “Pyridone methylsulfone hydroxamate LpxC inhibitors for the treatment of serious gram-negative infections” (J Med Chem, 2012)
